Measurements taken from ChEMBL document CHEMBL5465560, “Selectivity Literature for EUbOPEN Chemogenomic Library” (2024).

How the values were obtained:
[1] = molecular target: Histamine H2 receptor (Homo sapiens) (UniProt P25021); assay: Selectivity interaction (Eurofins CEREP Diversity Profile (receptors and ion channels)) EUB0000279b HRH2; settings: at 10 µM
[2] = molecular target: Bromodomain testis-specific protein (Homo sapiens) (UniProt Q58F21); assay: Selectivity interaction (Human bromodomain panel (DSF assay)) EUB0000233b BRDT
[3] = molecular target: T1, Atypical kinase COQ8B, mitochondrial (Homo sapiens) (UniProt Q96D53); assay: Selectivity interaction (KinomeScan (DiscoverX)) EUB0000666a ADCK4; settings: at 10 µM
T1 sequence (whole entry): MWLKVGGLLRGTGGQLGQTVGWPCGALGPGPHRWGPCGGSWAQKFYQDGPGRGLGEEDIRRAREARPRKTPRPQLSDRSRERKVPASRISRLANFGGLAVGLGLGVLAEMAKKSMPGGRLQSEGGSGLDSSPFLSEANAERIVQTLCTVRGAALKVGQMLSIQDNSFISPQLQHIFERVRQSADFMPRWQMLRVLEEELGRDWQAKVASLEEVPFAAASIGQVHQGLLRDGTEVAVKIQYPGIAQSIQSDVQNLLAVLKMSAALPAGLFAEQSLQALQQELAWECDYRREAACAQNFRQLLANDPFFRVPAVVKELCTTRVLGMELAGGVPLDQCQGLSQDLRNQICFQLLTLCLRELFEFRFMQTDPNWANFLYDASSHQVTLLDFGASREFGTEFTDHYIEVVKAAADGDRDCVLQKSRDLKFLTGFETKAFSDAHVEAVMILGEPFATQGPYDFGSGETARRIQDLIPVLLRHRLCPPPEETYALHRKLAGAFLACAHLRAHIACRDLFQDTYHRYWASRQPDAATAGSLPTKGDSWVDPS

[4] = molecular target: Tyrosine-protein kinase Lck (Homo sapiens, UniProt P06239); assay: Selectivity interaction (SelectScreen profiling (Invitrogen)) EUB0000607a LCK; settings: at 2 µM
Sequence of Tyrosine-protein kinase Lck (P06239 2-509 limits assumed): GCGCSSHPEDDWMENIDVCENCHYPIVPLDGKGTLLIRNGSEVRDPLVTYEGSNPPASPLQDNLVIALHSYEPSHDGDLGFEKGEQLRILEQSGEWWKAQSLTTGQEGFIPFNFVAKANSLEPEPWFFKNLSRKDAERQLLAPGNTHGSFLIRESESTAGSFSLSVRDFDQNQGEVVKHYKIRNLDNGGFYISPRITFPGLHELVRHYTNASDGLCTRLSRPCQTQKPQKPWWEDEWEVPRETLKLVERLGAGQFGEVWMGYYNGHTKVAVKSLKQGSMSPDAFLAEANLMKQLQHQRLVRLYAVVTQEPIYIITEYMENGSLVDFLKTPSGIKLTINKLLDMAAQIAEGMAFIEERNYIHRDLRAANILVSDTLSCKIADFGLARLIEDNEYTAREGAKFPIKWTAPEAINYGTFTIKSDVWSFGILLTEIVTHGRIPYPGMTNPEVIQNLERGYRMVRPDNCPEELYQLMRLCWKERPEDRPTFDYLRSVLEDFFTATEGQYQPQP

[5] = molecular target: Dual specificity tyrosine-phosphorylation-regulated kinase 1A (Homo sapiens, UniProt Q13627); assay: Selectivity interaction (ProQinase) EUB0000171b DYRK1A
[6] = molecular target: Ribosomal protein S6 kinase beta-1 (Homo sapiens, UniProt P23443); assay: Selectivity interaction (Kinase screening (Upstate/Millipore)) EUB0000604a RPS6KB1
Sequence of Ribosomal protein S6 kinase beta-1 (P23443 whole entry, looked up): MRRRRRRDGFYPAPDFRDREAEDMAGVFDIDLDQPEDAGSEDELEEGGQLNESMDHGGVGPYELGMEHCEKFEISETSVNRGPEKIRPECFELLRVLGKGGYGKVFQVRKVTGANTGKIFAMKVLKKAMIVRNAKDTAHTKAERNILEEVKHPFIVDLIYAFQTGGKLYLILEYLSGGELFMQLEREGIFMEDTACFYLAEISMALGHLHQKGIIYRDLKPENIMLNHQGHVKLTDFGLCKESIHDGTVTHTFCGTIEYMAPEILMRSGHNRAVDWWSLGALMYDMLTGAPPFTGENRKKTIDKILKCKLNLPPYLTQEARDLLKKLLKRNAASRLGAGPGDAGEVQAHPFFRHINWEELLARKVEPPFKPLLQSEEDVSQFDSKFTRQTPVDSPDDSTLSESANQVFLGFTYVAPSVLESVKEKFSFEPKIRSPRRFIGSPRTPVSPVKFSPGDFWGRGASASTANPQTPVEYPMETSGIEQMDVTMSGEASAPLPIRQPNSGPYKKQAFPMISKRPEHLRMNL

[7] = molecular target: Tyrosine-protein kinase BTK (Homo sapiens, UniProt Q06187); settings: at 1 µM
Sequence of Tyrosine-protein kinase BTK (Q06187 whole entry, canonical isoform): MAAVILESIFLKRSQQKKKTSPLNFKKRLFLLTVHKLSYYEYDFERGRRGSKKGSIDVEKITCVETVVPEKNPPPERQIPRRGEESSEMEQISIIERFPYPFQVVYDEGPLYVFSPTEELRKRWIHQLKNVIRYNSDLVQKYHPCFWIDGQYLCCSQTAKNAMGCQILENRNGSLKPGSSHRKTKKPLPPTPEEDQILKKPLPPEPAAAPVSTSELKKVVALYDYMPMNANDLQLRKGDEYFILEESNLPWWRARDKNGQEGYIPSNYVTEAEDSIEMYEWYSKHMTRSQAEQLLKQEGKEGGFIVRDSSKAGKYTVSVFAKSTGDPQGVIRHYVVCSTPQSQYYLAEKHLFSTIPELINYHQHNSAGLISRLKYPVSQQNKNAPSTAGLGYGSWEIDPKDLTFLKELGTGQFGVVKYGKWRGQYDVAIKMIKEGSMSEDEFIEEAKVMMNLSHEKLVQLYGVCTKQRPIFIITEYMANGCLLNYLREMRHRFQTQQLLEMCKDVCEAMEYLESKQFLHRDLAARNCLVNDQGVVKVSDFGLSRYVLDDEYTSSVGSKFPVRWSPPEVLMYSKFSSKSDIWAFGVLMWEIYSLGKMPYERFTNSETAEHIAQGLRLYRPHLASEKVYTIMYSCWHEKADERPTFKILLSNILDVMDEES

[8] = molecular target: T2, Casein kinase I isoform alpha-like (Homo sapiens) (UniProt Q8N752); assay: Selectivity interaction (KinomeScan (DiscoverX)) EUB0000045b CSNK1A1L
T2 sequence (whole entry): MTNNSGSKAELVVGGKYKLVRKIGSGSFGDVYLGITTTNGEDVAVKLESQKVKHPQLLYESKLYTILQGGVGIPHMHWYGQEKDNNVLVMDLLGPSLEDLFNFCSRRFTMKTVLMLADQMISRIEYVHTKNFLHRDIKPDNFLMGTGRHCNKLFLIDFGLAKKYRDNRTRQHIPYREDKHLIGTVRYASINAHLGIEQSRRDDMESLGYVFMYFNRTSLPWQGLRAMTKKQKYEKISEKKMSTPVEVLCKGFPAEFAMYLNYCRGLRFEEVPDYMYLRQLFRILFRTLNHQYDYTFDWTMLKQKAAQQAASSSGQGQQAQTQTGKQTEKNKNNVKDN

[9] = molecular target: 5'-AMP-activated protein kinase catalytic subunit alpha-1 (Homo sapiens, UniProt Q13131); assay: Selectivity interaction (Kinase panel (KiNativ target engagement assay in Jurkat cells)) EUB0001635a PRKAA1; assay type: cell-based; settings: Selectivity number of off-targets 0.0, Selectivity number of targets 233.0, Source Knowledge https://www.sciencedirect.com/science/article/pii/S2451945619300674?via%3Dihub, at 1 µM
Sequence of 5'-AMP-activated protein kinase catalytic subunit alpha-1 (Q13131 whole entry, looked up): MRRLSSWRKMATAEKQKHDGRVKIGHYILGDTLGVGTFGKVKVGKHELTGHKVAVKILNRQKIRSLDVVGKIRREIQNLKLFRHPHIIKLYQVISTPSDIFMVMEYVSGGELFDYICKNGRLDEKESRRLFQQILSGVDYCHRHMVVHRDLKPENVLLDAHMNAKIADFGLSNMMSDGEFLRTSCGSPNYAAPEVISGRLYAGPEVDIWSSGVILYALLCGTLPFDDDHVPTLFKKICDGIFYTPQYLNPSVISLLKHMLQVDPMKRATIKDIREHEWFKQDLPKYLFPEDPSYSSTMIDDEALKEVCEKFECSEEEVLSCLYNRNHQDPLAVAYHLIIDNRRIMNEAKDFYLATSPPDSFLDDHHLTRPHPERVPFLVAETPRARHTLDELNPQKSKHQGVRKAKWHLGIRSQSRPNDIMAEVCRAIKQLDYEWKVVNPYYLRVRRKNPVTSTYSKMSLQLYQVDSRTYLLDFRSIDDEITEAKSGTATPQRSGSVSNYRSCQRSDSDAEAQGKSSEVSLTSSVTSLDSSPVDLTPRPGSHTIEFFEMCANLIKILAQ

[10] = molecular target: Ribosomal protein S6 kinase alpha-1 (Homo sapiens, UniProt Q15418); assay: Selectivity interaction (ActivX KiNativ screen (ex vivo kinase selectivity in human PBMCs)) EUB0001619a RPS6KA1; assay type: cell-based; settings: PBMC, at 1 µM
Sequence of Ribosomal protein S6 kinase alpha-1 (Q15418 whole entry): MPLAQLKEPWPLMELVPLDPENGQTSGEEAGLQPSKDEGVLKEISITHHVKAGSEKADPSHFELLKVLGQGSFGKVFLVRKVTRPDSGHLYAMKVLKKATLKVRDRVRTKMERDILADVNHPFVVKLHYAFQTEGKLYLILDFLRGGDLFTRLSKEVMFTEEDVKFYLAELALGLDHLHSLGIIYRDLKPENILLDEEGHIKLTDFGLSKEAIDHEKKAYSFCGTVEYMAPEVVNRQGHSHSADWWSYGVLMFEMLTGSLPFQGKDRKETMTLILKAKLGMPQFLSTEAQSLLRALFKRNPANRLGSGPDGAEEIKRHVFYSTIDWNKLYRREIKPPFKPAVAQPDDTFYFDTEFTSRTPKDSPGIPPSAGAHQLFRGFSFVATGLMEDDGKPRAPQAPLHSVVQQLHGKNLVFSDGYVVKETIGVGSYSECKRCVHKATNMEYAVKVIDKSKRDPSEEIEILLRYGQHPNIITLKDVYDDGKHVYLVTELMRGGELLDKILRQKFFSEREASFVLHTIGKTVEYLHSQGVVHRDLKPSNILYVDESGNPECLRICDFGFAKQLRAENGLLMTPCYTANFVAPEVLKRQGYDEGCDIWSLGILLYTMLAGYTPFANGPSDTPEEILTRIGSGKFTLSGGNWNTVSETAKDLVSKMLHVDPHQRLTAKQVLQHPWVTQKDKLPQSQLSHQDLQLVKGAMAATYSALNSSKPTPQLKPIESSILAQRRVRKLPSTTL

[11] = molecular target: T3, Serine/threonine-protein kinase DCLK2 (Homo sapiens) (UniProt Q8N568); assay: Selectivity interaction (KinomeScan (DiscoverX)) EUB0001619a DCLK2; settings: at 1 µM
T3 sequence (whole entry): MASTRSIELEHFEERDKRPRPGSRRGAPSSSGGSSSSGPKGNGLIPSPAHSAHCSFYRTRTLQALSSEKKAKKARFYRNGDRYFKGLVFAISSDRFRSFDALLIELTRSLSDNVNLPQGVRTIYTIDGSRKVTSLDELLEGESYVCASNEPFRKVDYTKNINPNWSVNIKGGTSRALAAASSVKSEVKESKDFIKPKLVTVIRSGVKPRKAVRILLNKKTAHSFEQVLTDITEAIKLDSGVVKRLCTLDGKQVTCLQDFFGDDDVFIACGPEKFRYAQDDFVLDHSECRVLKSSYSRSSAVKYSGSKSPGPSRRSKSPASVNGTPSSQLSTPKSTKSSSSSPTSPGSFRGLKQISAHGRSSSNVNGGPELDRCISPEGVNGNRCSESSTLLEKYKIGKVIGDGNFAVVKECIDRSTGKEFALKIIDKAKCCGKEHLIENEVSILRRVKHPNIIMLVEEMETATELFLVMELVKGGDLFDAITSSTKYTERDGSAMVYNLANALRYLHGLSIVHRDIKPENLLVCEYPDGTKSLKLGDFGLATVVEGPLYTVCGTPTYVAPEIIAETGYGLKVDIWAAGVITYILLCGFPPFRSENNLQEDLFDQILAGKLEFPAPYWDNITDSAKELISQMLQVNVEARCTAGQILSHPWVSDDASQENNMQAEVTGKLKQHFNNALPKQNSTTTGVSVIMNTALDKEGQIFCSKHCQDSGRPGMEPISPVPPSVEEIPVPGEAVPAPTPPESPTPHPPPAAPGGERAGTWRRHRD

Sequence of Histamine H2 receptor (Homo sapiens) (P25021 whole entry): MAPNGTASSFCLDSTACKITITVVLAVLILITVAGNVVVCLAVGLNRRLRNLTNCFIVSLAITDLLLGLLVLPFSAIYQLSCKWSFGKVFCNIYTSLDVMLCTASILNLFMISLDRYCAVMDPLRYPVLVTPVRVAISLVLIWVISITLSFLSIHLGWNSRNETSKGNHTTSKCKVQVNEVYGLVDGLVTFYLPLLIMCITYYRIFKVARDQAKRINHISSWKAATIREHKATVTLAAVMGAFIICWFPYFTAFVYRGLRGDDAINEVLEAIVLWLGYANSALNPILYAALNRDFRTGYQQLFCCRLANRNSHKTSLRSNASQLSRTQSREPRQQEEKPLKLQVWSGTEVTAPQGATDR

`CC(=O)c1cc(-c2ccccc2OCC2CC2)c2ncccn12` was tested, and the % of control [1] was 115%.
`CN(C)CCCOc1ccc(-c2cc(NCCCn3cccn3)nc(S(C)(=O)=O)n2)cc1` gave a dTM [2] of under 2 K.
Molecule `O=C(NOC[C@H](O)CO)c1ccc(F)c(F)c1Nc1ccc(I)cc1F` has a % of control [3] of 100%.
In the case of `CNC(=O)Nc1ccc(-c2nc(N3CC4CCC(C3)O4)c3cnn(C4CCC5(CC4)OCCO5)c3n2)cc1`, the % of inhibition [4] is reported as 10%.
`C=CC(=O)Nc1cccc(C(=O)Nc2ccc(Nc3cc(-c4[nH]c(SC)nc4C)ccn3)cc2)c1` gave a % of control ([5]; at 1 µM) of 92% and a % of control ([5]; at 5 µM) of 70%.
`Cc1cnc(Nc2ccc(F)cc2Cl)nc1-c1c[nH]c(C(=O)N[C@H](CO)c2cccc(Cl)c2)c1` showed a % of inhibition [6] of 18%.
`C=CC(=O)Nc1cc(-n2c(=O)ccc3cnc4ccc(-c5ccc(NS(C)(=O)=O)cc5)cc4c32)ccc1C` showed a % of control [7] of 1%, a % of control ([8]; at 1 µM) of 100% and a % of control ([8]; at 10 µM) of 100%.
`C=CC(=O)Nc1ccc(C(=O)Nc2[nH]nc3c2CN(C(=O)N[C@H](CN(C)C)c2ccccc2)C3(C)C)cc1` showed a % of engagement [9] of -51.7%.
`N#Cc1cccc(-c2c[nH]c3ncnc(N4CCOCC4)c23)c1` gave a % of inhibition [10] of 13% and a % of control [11] of 100%.
